In BindingDB's records for doi:10.7270/Q2222S6W (University of Pittsburgh, 2007):

What follows are molecules tested against Genome polyprotein (West Nile virus, UniProt P06935) (assay: inhibitors of WNV NS2B-NS3 protease, dose response, biochemical, confirmation (AID 653)).
Sequence of Genome polyprotein (P06935 1371-1501 limits assumed): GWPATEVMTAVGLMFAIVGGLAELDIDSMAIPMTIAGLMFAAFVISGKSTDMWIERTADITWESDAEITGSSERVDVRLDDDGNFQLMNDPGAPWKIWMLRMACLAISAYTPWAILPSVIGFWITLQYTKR
Sequence of Genome polyprotein (P06935 1502-2120 limits assumed): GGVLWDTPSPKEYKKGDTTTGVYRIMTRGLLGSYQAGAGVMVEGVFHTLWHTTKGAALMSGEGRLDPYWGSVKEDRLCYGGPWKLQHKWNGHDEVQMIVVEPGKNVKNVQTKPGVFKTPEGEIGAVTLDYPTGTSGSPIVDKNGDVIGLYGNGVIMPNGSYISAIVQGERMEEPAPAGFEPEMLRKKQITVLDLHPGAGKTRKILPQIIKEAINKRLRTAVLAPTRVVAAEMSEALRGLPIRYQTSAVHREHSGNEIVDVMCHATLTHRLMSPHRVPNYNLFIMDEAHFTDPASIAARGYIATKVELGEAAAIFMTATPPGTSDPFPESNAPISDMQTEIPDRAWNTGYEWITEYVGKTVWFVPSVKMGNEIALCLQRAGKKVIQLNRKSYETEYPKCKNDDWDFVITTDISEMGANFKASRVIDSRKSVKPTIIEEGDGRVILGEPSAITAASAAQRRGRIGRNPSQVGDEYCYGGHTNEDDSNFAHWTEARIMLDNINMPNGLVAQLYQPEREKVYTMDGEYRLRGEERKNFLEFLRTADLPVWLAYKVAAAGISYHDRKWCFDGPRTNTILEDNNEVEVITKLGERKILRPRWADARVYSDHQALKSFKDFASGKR

COc1ccc(C2CC(c3cccc(C)c3)n3ncnc3N2)cc1 (stereo not drawn) [5-(4-methoxyphenyl)-7-(3-methylphenyl)-1,5,6,7-tetrahydro-[1,2,4]triazolo[1,5-a]pyrimidine] and Cc1cccc(N(C)C(=S)Oc2ccc3ccccc3c2)c1 [MLS000028526] cannot be ordered by IC50: > 50 µM for the first, > 50 µM for the second.

First: Cc1ccccc1S(=O)(=O)Cc1ccc(C(=O)NCCCOC(C)C)o1 [5-[(2-methylphenyl)sulfonylmethyl]-N-(3-propan-2-yloxypropyl)-2-furancarboxamide]
Second: Cc1ccc(S(=O)(=O)n2nc(OC(=O)c3ccco3)cc2N)cc1 [MLS000033865]
The IC50 of the first is higher: > 50 µM for the first, 14.4 µM for the second.

C=CCC1(CN2CCCCCC2=O)C(=O)NC(=O)NC1=O [5-[(2-oxidanylideneazepan-1-yl)methyl]-5-prop-2-enyl-1,3-diazinane-2,4,6-trione] and CCOC(=O)c1c(C)n(C)c2ccc(OC)c(NC(=O)CN3CCCCC3)c12 [5-methoxy-1,2-dimethyl-4-[(2-piperidinoacetyl)amino]indole-3-carboxylic acid ethyl ester] cannot be ordered by IC50: > 50 µM for the first, > 50 µM for the second.

Compared with COc1ccc(Br)cc1C=c1sc2nc(-c3ccco3)nn2c1=O [5-[(5-bromanyl-2-methoxy-phenyl)methylidene]-2-(furan-2-yl)-[1,3]thiazolo[3,2-b][1,2,4]triazol-6-one], COc1ccc(S(=O)(=O)n2nc(OC(=O)c3ccco3)cc2N)cc1 [MLS000033887] is lower in IC50: > 50 µM for the first, 0.553 µM for the second. The second is the more potent here.

COC(=O)c1ccc(CSc2nnc(SCc3ccc(C(=O)OC)o3)s2)o1 [5-[[[5-[(5-carbomethoxy-2-furyl)methylthio]-1,3,4-thiadiazol-2-yl]thio]methyl]furan-2-carboxylic acid methyl ester] and COc1cc(C=CC(=O)CC(=O)C=Cc2ccc(O)c(OC)c2)ccc1O [(1E,6E)-1,7-bis(4-hydroxy-3-methoxyphenyl)hepta-1,6-diene-3,5-dione] cannot be ordered by IC50: > 50 µM for the first, > 50 µM for the second.

First: Nc1cc(OC(=O)c2cccs2)nn1S(=O)(=O)c1ccc(F)cc1 [5-amino-1-[(4-fluorophenyl)sulfonyl]-1H-pyrazol-3-yl thiophene-2-carboxylate]
Second: COc1ccc(S(=O)(=O)n2nc(OC(=O)c3ccccc3)cc2N)cc1 [Benzoic acid 5-amino-1-(4-methoxy-benzenesulfonyl)-1H-pyrazol-3-yl ester]
The IC50 of the first is 11-fold higher: 1.16 µM for the first, 0.105 µM for the second.

Cn1c2ccccc2c2nn(-c3ccccc3)c(=O)cc21 [5-methyl-2-phenyl-3-pyridazino[4,3-b]indolone] and CC(=O)Nc1nc2ccccc2n1CCOc1ccccc1Cl [MLS000034055] cannot be ordered by IC50: > 50 µM for the first, > 50 µM for the second.

COc1ccc(-c2cn3ccsc3n2)cc1 [6-(4-methoxyphenyl)imidazo[2,1-b][1,3]thiazole] and Cc1ccc(OCC(=O)Nc2ccc(-c3nnc(-c4ccco4)o3)cc2)cc1 [MLS000039074] cannot be ordered by IC50: > 50 µM for the first, > 50 µM for the second.

First: COc1ccc2c3c(cccc13)NN=C2C [6-Methoxy-3-methyl-1H-benzo[de]cinnoline]
Second: COc1ccc(/C=C(/C#N)c2cccnc2)cc1OC [(E)-3-(3,4-dimethoxyphenyl)-2-(3-pyridinyl)-2-propenenitrile]
The IC50 of the first is lower: 10.1 µM for the first, > 50 µM for the second. The first is the more potent here.

Cc1csc2nc(CNC(=O)C3CC=CCC3C(=O)O)cn12 (stereo not drawn) [6-[(3-methylimidazo[2,1-b][1,3]thiazol-6-yl)methylcarbamoyl]cyclohex-3-ene-1-carboxylic acid] and Cc1nn(-c2ccccc2)c2sc(C(=O)OC3CCOC3=O)cc12 (stereo not drawn) [(2-oxidanylideneoxolan-3-yl) 3-methyl-1-phenyl-thieno[2,3-c]pyrazole-5-carboxylate] cannot be ordered by IC50: > 50 µM for the first, > 50 µM for the second.

COc1cc(C2CC(C(F)(F)F)n3ncc(C(=O)O)c3N2)cc(OC)c1OC (stereo not drawn) [7-(trifluoromethyl)-5-(3,4,5-trimethoxyphenyl)-1,5,6,7-tetrahydropyrazolo[1,5-a]pyrimidine-3-carboxylic acid] and CCN1CCN(C(=O)C2c3cc(OC)c(OC)cc3C(=O)N3CCc4ccccc4C23)CC1 (stereo not drawn) [13-(4-ethylpiperazin-1-yl)carbonyl-10,11-dimethoxy-5,6,13,13a-tetrahydroisoquinolino[2,1-b]isoquinolin-8-one] cannot be ordered by IC50: > 50 µM for the first, > 50 µM for the second.

First: Cc1oc2c(CN(C)C)c(O)ccc2c(=O)c1-c1ccc2ccccc2n1 [8-[(dimethylamino)methyl]-2-methyl-7-oxidanyl-3-quinolin-2-yl-chromen-4-one]
Second: CCn1c(SCC(=O)Nc2ccc3c(c2)c2ccccc2n3CC)nnc1-c1ccco1 [MLS000050867]
The IC50 of the first is higher: > 50 µM for the first, 47.7 µM for the second. The second is the more potent here.

CN1CCN(CC(=O)N2c3ccccc3C(=O)Nc3cccnc32)CC1 [11-[(4-methylpiperazin-1-yl)acetyl]-5,11-dihydro-6H-pyrido[2,3-b][1,4]benzodiazepin-6-one] and O=C(c1ccco1)N(CCCN1CCOCC1)c1nc(-c2ccc(Cl)cc2)cs1 [Furan-2-carboxylic acid [4-(4-chloro-phenyl)-thiazol-2-yl]-(3-morpholin-4-yl-propyl)-amide] cannot be ordered by IC50: > 50 µM for the first, > 50 µM for the second.

CCCCc1oc2ccccc2c1C(=O)c1cc(I)c(OCCN(CC)CC)c(I)c1 [(2-{4-[(2-butyl-1-benzofuran-3-yl)carbonyl]-2,6-diiodophenoxy}ethyl)diethylamine] and COc1ccccc1-n1c(C)nnc1SCC(=O)Nc1cc(C)cc(C)c1 [MLS000032151] cannot be ordered by IC50: > 50 µM for the first, > 50 µM for the second.

CN(C)/C=C1/Sc2ccccc2C1=O [(2E)-2-(dimethylaminomethylene)benzothiophen-3-one] and CC[N+](C)(C)c1cccc(O)c1 [Edrophonium Chloride, 3] cannot be ordered by IC50: > 50 µM for the first, > 50 µM for the second.

CCCCOCCCNC(=O)N[C@@H](CC(C)C)C(=O)O [(2S)-2-(3-butoxypropylcarbamoylamino)-4-methyl-pentanoic acid] and CCCCC[C@H](O)C=C[C@H]1C=CC(=O)[C@@H]1C/C=C\CCCC(=O)O [(Z)-7-[(1R,5S)-2-oxidanylidene-5-[(E,3S)-3-oxidanyloct-1-enyl]cyclopent-3-en-1-yl]hept-5-enoic acid] cannot be ordered by IC50: > 50 µM for the first, > 50 µM for the second.

CNC(=O)Oc1ccc2c(c1)[C@]1(C)CCN(C)[C@@H]1N2C [(3aS,8aR)-1,3a,8-trimethyl-1H,2H,3H,3aH,8H,8aH-pyrrolo[2,3-b]indol-5-yl N-methylcarbamate; 2-hydroxybenzoic acid] and COc1ccc(C2C3=C(CC(C)(C)CC3=O)Oc3ncn4nc(-c5cccnc5)nc4c32)cc1OC (stereo not drawn) [MLS000040750] cannot be ordered by IC50: > 50 µM for the first, > 50 µM for the second.

COP(=O)(OC)C(O)C(Cl)(Cl)Cl (stereo not drawn) [(+-)-Trichlorfon] and CC(C)(S)[C@@H](N)C(=O)O [MLS000028669] cannot be ordered by IC50: > 50 µM for the first, > 50 µM for the second.

N#[N+][CH-]C(=O)OCC(N)C(=O)O [(E)-1-[(2S)-2-amino-2-carboxy-ethoxy]-2-diazonio-ethenolate] and CCn1nc(C(=O)O)c(=O)c2cc3c(cc21)OCO3 [CINOXACIN] cannot be ordered by IC50: > 50 µM for the first, > 50 µM for the second.

CN(C)c1nc(N(C)C)nc(N(C)C)n1 [ALTRETAMINE] and CCC(=O)O[C@]1(C(=O)CCl)[C@@H](C)C[C@H]2[C@@H]3CCC4=CC(=O)C=C[C@]4(C)[C@@]3(F)[C@@H](O)C[C@@]21C [MLS000028708] cannot be ordered by IC50: > 50 µM for the first, > 50 µM for the second.

CCCC(CCC)C(=O)OC1C[C@H]2CC[C@@H](C1)[N+]2(C)C (stereo partly drawn) [ANISOTROPINE METHYLBROMIDE] and CCOc1ccccc1N(CC(=O)NC1CCCC1)C(=O)CCC(=O)Nc1cc(C)on1 [MLS000032086] cannot be ordered by IC50: > 50 µM for the first, > 50 µM for the second.

With NS(=O)(=O)c1cc2c(cc1Cl)N=CNS2(=O)=O [MLS000028398] the IC50 was > 50 µM.
